Measurements from patent US20220242856A1, “CANNABINOID DERIVATIVES” (CANOPY GROWTH CORPORATION, priority 2019, published 2022).

Experiments:
human CB1 receptor [1] = biological target: T1, human CB1 receptor (Homo sapiens, UniProt P21554); assay: CB1 radioligand competitive binding assay ([3H]CP 55,940 displacement); settings: for Selectivity CB1: fold difference in selectivity between CB1 and CB2 binding, printed in the column of the receptor with higher affinity, 1.00 = about the same affinity
T1 construct: host or cells: CHO-K1

human CB2 receptor = biological target: T2, human CB2 receptor (Homo sapiens, UniProt P34972); assay: CB2 radioligand competitive binding assay ([3H]CP 55,940 displacement); settings: for Selectivity CB2: fold difference in selectivity between CB1 and CB2 binding, printed in the column of the receptor with higher affinity, 1.00 = about the same affinity
T2 construct: host or cells: CHO-K1
Method: Compounds of the present disclosure were tested for CB1 receptor binding affinity and for CB2 receptor binding affinity. As used herein, “binding affinity” is represented by the IC50 value, which was experimentally determined as described herein. The lower the IC50 value the higher the binding affinity. A compound of the present disclosure may be said to have “binding selectivity” if it has a higher binding affinity for one receptor compared to the other.
The membranes were prepared from CHO-K1 (Chinese hamster ovary) cells stably transfected with the human CB2 receptor (Cat.# ES-111-C; Perkin Elmer, Boston, Mass.). The cells were grown adherently and maintained in Ham's F12 medium containing 10% fetal bovine serum (FBS), penicillin, streptomycin and geneticin (G418) at 37° C. in a humid atmosphere of 5% CO2 following the manufacturer's instructions.
For membrane preparation the cells were washed with PBS and scraped off the plates in cold homogenization buffer (25 mM HEPES (pH 7.4), 2 mM EDTA) containing protease inhibitor cocktail (Sigma Cat.# P8340). The cell suspension was homogenized with a Pro-PK-01200D Polytron Homogenizer (Pro Scientific) and then centrifuged for 30 min at 120,000×g. The supernatant was discarded and the pellet was re-suspended in the homogenization buffer and stored at −80° C. until the time of use.
In this experiment, 3H radiolabeled CP 55,940, i.e. [3H]CP 55,940 (Perkin Elmer, Boston, Mass.), was used as a radioligand for the CB2 receptor to determine the binding affinity of compounds for the CB2 receptor (Scheme 7; above).
The competition binding experiments (single dose and dose-response) were performed by incubating 0.6 nM of [3H]CP55,940 (specific activity 101 Ci/mmol, Perkin Elmer) and different concentrations of compounds disclosed herein with membranes prepared as above from CHO-K1 cells expressing human CB2 receptor (1 μg of protein/well), 50 mM Tris-HCl (pH 7.4), 5 mM MgCl2, 1 mM CaCl2, and 2 mg/mL BSA.
For the single dose experiments, the compound stocks (usually 10 mM in DMSO) were diluted to working stocks in the binding buffer to give the final compound concentrations of 10 μM and 1 μM. For the dose-response experiments the test compounds were sequentially diluted to provide the desired concentration range for the IC50 determination. In each case the compounds were pre-incubated with the membrane for 20 min, before adding the radioligand.
After incubation with the radioligand for 60 min at 37° C., the incubation was terminated by rapid filtration of assay mixture through MultiScreen®HTS^+ 96-well filter plates (Millipore, Cat.# MSFCNXB), pre-soaked for 60 min with 50 mM Tris-HCl (pH 7.4) containing 0.33% polyethylenimine (PEI). The nonspecific binding (NSB) was determined in the presence of 10 μM unlabelled CP55,940. After drying the filter plate at 50° C. for at least 60 min, the filter-bound radioactivity was determined by scintillation spectrometry using the 1450 MicroBeta Plate Counter (Perkin Elmer, Boston, Mass.). From the dose-response experiments, the IC50 values were determined (see Table 1, CB2 IC50).

human CB1 receptor [2] = biological target: T1, human CB1 receptor; assay: PathHunter β-arrestin functional assay, CB1 receptor, agonist mode; type: cell-based; settings: PathHunter CHO-K1 CNR1 β-Arrestin cells; normalized to CP55,940
From the text: (§1) In the PathHunter® β-Arrestin system from DiscoveRx (Eurofins, Fremont, Calif.), a small peptide, the ProLink™ (PK), is fused to the intracellular sequence of a GPCR target, and a complementing peptide, the enzyme acceptor (EA) fragment, is fused to β-arrestin. After binding to its specific ligand, the GPCR target recruits β-arrestin, forcing the complementation of the two β-galactosidase enzyme fragments (EA and PK) to produce a functional β-galactosidase enzyme. The enzyme activity, and thus the amount of ligand bound to the GPCR, is detected with a single addition of a reagent cocktail to lyse the cells and produce a chemiluminescent signal before being analyzed using a traditional plate reader.
(§2) PathHunter® CHO-K1 CNR1 β-Arrestin cells (DiscoverRx, cat. Number 93-0959C2) stably expressing CB1 receptor (CB1R) were grown in Ham's F12 medium containing 10% fetal bovine serum (FBS), 1% penicillin/streptomycin, 300 μg/mL Hygromycin B and 800 μg/mL geneticin (G418) and maintained in 37° C. incubators at 5% CO2. […]
(§3) The incubation was terminated by adding the detection reagent (19 parts of 1% CHAPS, 5 parts Emerald-II and 1 part Galacton-Star), equivalent to 50% of the assay volume to each wells. Plates were incubated for 1 hour in the dark at room temperature, followed by chemiluminescence detection using a microplate reader.
(§4) Data were analysed by generating nonlinear regression curves. […]

human CB1 receptor [3] = biological target: T1, human CB1 receptor; assay: PathHunter β-arrestin functional assay, CB1 receptor, antagonist mode; type: cell-based
From the text: as §1, §2, §3, §4

T2 sequence (P34972 whole entry): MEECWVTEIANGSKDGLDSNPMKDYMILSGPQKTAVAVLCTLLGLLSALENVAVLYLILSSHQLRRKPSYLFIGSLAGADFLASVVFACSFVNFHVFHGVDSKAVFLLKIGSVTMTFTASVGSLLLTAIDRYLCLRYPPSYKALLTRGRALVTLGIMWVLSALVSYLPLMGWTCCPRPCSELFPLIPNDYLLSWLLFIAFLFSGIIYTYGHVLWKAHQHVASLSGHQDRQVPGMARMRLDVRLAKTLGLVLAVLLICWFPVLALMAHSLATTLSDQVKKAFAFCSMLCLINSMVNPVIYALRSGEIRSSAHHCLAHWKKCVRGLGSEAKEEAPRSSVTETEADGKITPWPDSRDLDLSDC
T1 sequence (P21554 whole entry): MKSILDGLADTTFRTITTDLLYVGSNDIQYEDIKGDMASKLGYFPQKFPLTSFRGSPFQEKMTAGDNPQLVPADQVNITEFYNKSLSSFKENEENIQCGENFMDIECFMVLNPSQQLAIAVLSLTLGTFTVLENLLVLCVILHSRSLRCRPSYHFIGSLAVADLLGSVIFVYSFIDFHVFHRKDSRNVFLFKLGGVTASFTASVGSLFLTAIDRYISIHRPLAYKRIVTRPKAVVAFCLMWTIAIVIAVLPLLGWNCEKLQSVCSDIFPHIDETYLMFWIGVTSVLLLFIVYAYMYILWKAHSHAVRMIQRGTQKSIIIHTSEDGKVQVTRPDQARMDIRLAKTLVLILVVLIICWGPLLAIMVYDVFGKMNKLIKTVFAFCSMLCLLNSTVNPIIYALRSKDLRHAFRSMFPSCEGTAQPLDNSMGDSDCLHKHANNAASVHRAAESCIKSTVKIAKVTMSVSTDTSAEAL

Structure (SMILES)	IC50 (human CB1 receptor [1]) [µM]	IC50 (human CB2 receptor) [µM]	Selectivity CB2 (human CB2 receptor) [fold]	activity towards the human CB1 receptor, agonist mode (human CB1 receptor [2])	IC50 (human CB1 receptor [3]) [µM]	Selectivity CB1 (human CB1 receptor [1]) [fold]
CCCCCc1cc2c(c(O)c1-c1ccncc1)[C@@H]1C=C(C)CC[C@H]1C(C)(C)O2 [Compound 14b, 6,6,9-trimethyl-3-pentyl-2-(pyridin-4-yl)-6a,7,8,10a-tetrahydro-6H-benzo[c]chromen-1-ol]	0.1 to 0.49	0.1 to 0.49	1.77	–	–	–
CCCCCc1cc2c(c(O)c1-c1cc3ccccc3s1)[C@@H]1C=C(C)CC[C@H]1C(C)(C)O2 [Compound 36b, 2-(benzothiophen-2-yl)-6,6,9-trimethyl-3-pentyl-6a,7,8,10a-tetrahydrobenzo[c]chromen-1-ol]	> 1	0.1 to 0.49	5.67	minimal to no activity	~3	–
CCCCCc1cc2c(c(O)c1-c1cccnc1)[C@@H]1C=C(C)CC[C@H]1C(C)(C)O2 [Compound 12b, 6,6,9-trimethyl-3-pentyl-2-(pyridin-3-yl)-6a,7,8,10a-tetrahydro-6H-benzo[c]chromen-1-ol]	0.5 to 0.99	0.5 to 0.99	1.57	minimal to no activity	–	–
CCCCCc1cc2c(c(O)c1-c1ccco1)[C@@H]1C=C(C)CC[C@H]1C(C)(C)O2 [Compound 15b, 2-(furan-2-yl)-6,6,9-trimethyl-3-pentyl-6a,7,8,10a-tetrahydro-6H-benzo[c]chromen-1-ol]	< 0.1	< 0.1	1.00	–	–	1.00
CCCCCc1cc2c(c(O)c1-c1cncnc1)[C@@H]1C=C(C)CC[C@H]1C(C)(C)O2 [Compound 13b, 6,6,9-trimethyl-3-pentyl-2-(pyrimidin-5-yl)-6a,7,8,10a-tetrahydro-6H-benzo [c] chromen-1-ol]	> 1	0.5 to 0.99	5.00	–	–	–
CCCCCc1cc2c(c(O)c1-c1cn[nH]c1)[C@@H]1C=C(C)CC[C@H]1C(C)(C)O2 [Compound 35b, 6,6,9-trimethyl-3-pentyl-2-(1H-pyrazol-4-yl)-6a,7,8,10a-tetrahydro-6H-benzo[c]chromen-1-ol]	> 1	0.5 to 0.99	2.64	–	–	–
CCCCCc1cc2c(c(O)c1-c1cncs1)[C@@H]1C=C(C)CC[C@H]1C(C)(C)O2 [Compound 18b]	> 1	> 1	1.00	–	–	1.00
CCCCCc1cc2c(c(O)c1-c1ccsc1)[C@@H]1C=C(C)CC[C@H]1C(C)(C)O2 [Compound 17b, 6,6,9-trimethyl-3-pentyl-2-(thiophen-3-yl)-6a,7,8,10a-tetrahydro-6H-benzo[c]chromen-1-ol]	0.1 to 0.49	< 0.1	3.43	–	–	–
CCCCCc1cc2c(c(O)c1-c1cc3ccccc3o1)[C@@H]1C=C(C)CC[C@H]1C(C)(C)O2 [Compound 34b, 2-(benzofuran-2-yl)-6,6,9-trimethyl-3-pentyl-6a,7,8,10a-tetrahydro-6H-benzo[c]chromen-1-ol]	0.5 to 0.99	0.1 to 0.49	4.41	–	–	–
CCCCCc1cc2c(c(O)c1-c1ccnn1C)[C@@H]1C=C(C)CC[C@H]1C(C)(C)O2 [Compound 33b, 6,6,9-trimethyl-2-(1-methyl-1H-pyrazol-5-yl)-3-pentyl-6a,7,8,10a-tetrahydro-6H-benzo[c]chromen-1-ol]	0.1 to 0.49	0.1 to 0.49	1.61	–	–	–
